Patent publication US20210346279A1, “COMPOSITIONS COMPRISING TAPINAROF FOR THE TREATMENT OF PRURITIS” (Sol-Gel Technologies Ltd., priority 2020, published 2021)

System: C57/b16 mice
Experiment: acetone-ether-water (AEW) induced pruritus in a mouse model, spontaneous scratching recorded for 60 min
Assay type: in vivo
Method: The objective of this study was to examine the efficacy of topical formulations of Tapinarof in the strength of 0.5%, 1% and 2% as a treatment in acetone-ether-water (AEW) induced pruritus in a mouse model.
The model of inducing itching sensation was done by treating C57/b16 mice with AEW as was conducted in other studies in the past.
The mice were shaved 24 h prior to study to expose the skin. For 5 days, twice a day (at least 3-4 hours apart), mice were applied acetone and ether (mixed at 1:1 ratio) on the right cheek for 30 seconds, and immediately afterwards applied on cheek water for 30 seconds.
Day 1-3: AEW was treated twice (at least 3-4 hours apart), AE 30s, Water 30s.
Day 4-5: AEW was treated twice (at least 3-4 hours apart), AE 30s, Water 30s, topical administration of vehicle, tapinarof 0.5%, tapinarof 1%, tapinarof 2% (−20 h before evaluation) and randomization.
Day 5: AEW was treated once, topical administration of vehicle, tapinarof 0.5%, tapinarof 1%, and tapinarof 2% (−2 h before evaluation), positive control dosing (−30 min), video record (evaluation), animal weighing, sacrificing, plasma collection and skin sample collection.
Immediately after AEW application on day 5, the mice were put into acrylic chambers and behavior was recorded for 60 min using a video camera under unmanned conditions to assess spontaneous scratching. Videos were manually scored for time spent spontaneously scratching the affected cheek. Scratching is defined as an episode in which the mouse lifted its paw and scratched continuously for any length of time until the paw returned to the floor. Only scratches of the affected cheek with their hind paws were counted. Other scratching behaviors were disregarded. The number of scratches was summarized for each animal and the average number per group was calculated. In addition, the scratching time (seconds) was also evaluated, and the average of scratching time was calculated. Data are expressed as the mean±S.E.M. statistically significant differences between two groups were evaluated using paired or non-paired Student's t-test as required.

Q: How did the “effect on scratching compared with the positive control” value (topical formulation 0.5% w/w) turn out when `CC(C)c1c(O)cc(/C=C/c2ccccc2)cc1O` [tapinarof] was run?
A: comparable to the positive control

Q: And the “effect over the vehicle (scratching sessions and periods)” value (topical formulation 0.5% w/w, applied -20 h and -2 h before evaluation)?
A: ~40%

Q: And the “effect on scratching sessions and periods” value (topical formulation 1% w/w (percent increased twice versus 0.5%))?
A: did not reduce the scratching sessions and periods

Q: What about the “effect on scratching sessions and periods” value (topical formulation 2% w/w (percent increased four times versus 0.5%)) of the same compound?
A: did not reduce the scratching sessions and periods
